Assay [1] has as its system ZR-75-1 cells. Nature of the assay: Proliferation assay ZR-75-1 (Alamar Blue, 144 h). It counts as cell-based. The note with it: Homo sapiens, ZR-75-1, 144 h, arithmetic mean, read-out: ZR75-1 proliferation assay, EC50 [M] (arithmetic mean). An outline of the steps: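 Cells seeded at 3000/well in RPMI 1640 with 2.5% FBS and treated 24 h later across 2.0×10E-5 to 2.0×10E-9 M (9 dilutions, 0.2% DMSO, triplicate). After 144 h at 37 °C, 5% CO2, viability read by Alamar Blue fluorescence at 590 nm following 2 h reagent incubation.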
A general note: Alamar Blue is a resazurin reagent that responds to reducing activity.

For assay [2], the system named is ESR1 transcription (luciferase signal in MVLN cells). In words: Repression of ESR1 transcription, luciferase reporter in MVLN cells. In kind it is cell-based. Particulars: Homo sapiens, MVLN, inhibition of luciferase signal in MVLN cells; arithmetic mean. An outline of the steps:
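MVLN cells (constitutive ER, stably carrying a Vitellogenin A2 hormone-responsive element–luciferase reporter) treated in duplicate; luciferase read after 24 h. Cell density checked by Alamar Blue fluorescence (530/590 nm) after 2 h to exclude cell-loss effects.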
(Reporter assays use an easily measured gene product as a stand-in for the process of interest.)

Assay [3] deals with Recombinant human His-tagged Kat6a protein (amino acids 194-810) (Homo sapiens (Human), UniProt Q92794). Nature of the assay: Kat6a activity assay (TR-FRET, acetylation of biotinylated Histone-H4-derived peptide). In kind it is biochemical. Particulars: 60 mins at 22° C., read-out: KAT6A-DPF/HAT domain IC50 [mol/l] (arithmetic mean). An outline of the steps: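 Sf9-expressed human His-Kat6a (aa 194-810) incubated 60 min at 22 °C with compounds (0.01-20 μM) in Tris pH 8 buffer containing 220 nM biotinylated H4 peptide (aa 1-24) and 600 nM acetyl-CoA. Acetyl-K8 detected by TR-FRET (665/620 nm ratio); IC50 by four-parameter fit versus DMSO controls.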
Sequence of Recombinant human His-tagged Kat6a protein (amino acids 194-810) (Q92794 194-810): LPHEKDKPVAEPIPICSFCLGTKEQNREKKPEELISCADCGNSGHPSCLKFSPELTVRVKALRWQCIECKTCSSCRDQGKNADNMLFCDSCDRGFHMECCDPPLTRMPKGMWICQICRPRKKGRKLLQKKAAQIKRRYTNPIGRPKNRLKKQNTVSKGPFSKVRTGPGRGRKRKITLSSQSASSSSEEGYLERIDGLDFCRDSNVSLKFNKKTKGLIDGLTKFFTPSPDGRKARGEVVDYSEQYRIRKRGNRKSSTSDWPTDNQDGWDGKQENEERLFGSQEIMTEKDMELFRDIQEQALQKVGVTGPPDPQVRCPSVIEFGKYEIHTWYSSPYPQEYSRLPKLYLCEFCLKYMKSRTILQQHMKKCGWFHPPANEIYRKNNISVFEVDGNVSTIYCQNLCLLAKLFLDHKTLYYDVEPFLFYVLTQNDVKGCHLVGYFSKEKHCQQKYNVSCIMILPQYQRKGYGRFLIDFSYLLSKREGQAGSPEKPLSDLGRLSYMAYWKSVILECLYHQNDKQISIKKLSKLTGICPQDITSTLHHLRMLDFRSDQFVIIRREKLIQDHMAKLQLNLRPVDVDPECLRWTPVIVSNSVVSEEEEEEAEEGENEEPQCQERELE
(Time-resolved FRET reads energy transfer from a long-lived donor to a nearby acceptor.)

Assay [4] concerns the target Recombinant human GST-tagged Kat6b protein (431-end). Nature of the assay: Kat6b activity assay (TR-FRET, acetylation of biotinylated Histone-H4-derived peptide). The note with it: 30 mins at 22° C., read-out: KAT6B activity assay IC50 [mol/l] (arithmetic mean). In kind it is biochemical.
Assay [5] deals with MDA-MB-436 cells. In words: Proliferation assay MDA-MB-436, negative control cell line (Alamar Blue, 144 h). In kind it is cell-based. The note with it: Homo sapiens, MDA-MB-436, 144 h, arithmetic mean. The procedure, abridged:
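MDA-MB-436 cells (3000/well, DMEM/Ham's F12 with 2.5% FBS) treated 24 h after plating with compounds at 2.0×10E-5 to 2.0×10E-9 M (9 dilutions, 0.2% DMSO), triplicates, 144 h at 37 °C, 5% CO2. Viability by Alamar Blue, 2 h, fluorescence at 590 nm.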

Molecules are shown by their SMILES. A value given as a limit tells only on which side of the number the result lay.

With `CCOc1ccc(I)cc1S(=O)(=O)NC(=O)c1cc2ccc(N(C)C)cc2o1` [Example 78, 6-(Dimethylamino)-N-(2-ethoxy-5-iodobenzene-1-sulfonyl)-1-benzofuran-2-carboxamide], the values for the EC50 in assay [1] and in assay [5] were 2.79e-06 M and more than 20000 nM, respectively. Also, the IC50 in assay [2] came to 153 nM; in assay [3] it was 32.7 nM; in assay [4], 87 nM.

Take `CN(C)c1ccc2cc(C(=O)NS(=O)(=O)c3ccccc3OC(F)F)oc2c1` [Example 79, N-[2-(Difluoromethoxy)benzene-1-sulfonyl]-6-(dimethylamino)-1-benzofuran-2-carboxamide]: the EC50 in assay [1] was 2.22e-07 M; in assay [5], more than 20000 nM. Further, the IC50 in assay [2] was 164 nM; in assay [3], 188 nM; in assay [4] it was 200 nM.

As to `CCOc1cccc(-c2ccccc2)c1S(=O)(=O)NC(=O)c1cc2ccc(N(C)C)cc2o1` [Example 80, 6-(Dimethylamino)-N-(3-ethoxy[1,1′-biphenyl]-2-sulfonyl)-1-benzofuran-2-carboxamide], the EC50 in assay [1] was 3.29e-07 M; in assay [5], more than 20000 nM. Also, the IC50 in assay [2] worked out at 172 nM; in assay [3], 73.8 nM; in assay [4] it was 68.8 nM.

For the molecule `CCOc1ncccc1S(=O)(=O)NC(=O)c1cc2ccc(N(C)C)cc2o1` [Example 81, 6-(Dimethylamino)-N-(2-ethoxypyridine-3-sulfonyl)-1-benzofuran-2-carboxamide], the EC50 in assay [1] is 4.06e-07 M; in assay [5], more than 20000 nM. For the same molecule, the IC50 in assay [2] worked out at 188 nM; in assay [3], 320 nM; in assay [4], 377 nM.

In the case of `CN(C)c1ccc2cc(C(=O)NS(=O)(=O)c3ccccc3OC3COC3)oc2c1` [Example 82, 6-(Dimethylamino)-N-{2-[(oxetan-3-yl)oxy]benzene-1-sulfonyl}-1-benzofuran-2-carboxamide], the EC50 in assay [1] is 2e-07 M; in assay [5], more than 20000 nM. Moreover, the IC50 was 201 nM in assay [2], 237 nM in assay [3] and 265 nM in assay [4].

On to `CN(C)c1ccc2cc(C(=O)NS(=O)(=O)c3ccccc3Oc3ccccc3)oc2c1` [Example 85, 6-(Dimethylamino)-N-(2-phenoxybenzene-1-sulfonyl)-1-benzofuran-2-carboxamide], for which the EC50 was 4e-07 M in assay [1] and more than 20000 nM in assay [5]. Besides, the IC50 is 232 nM in assay [2], 115 nM in assay [3] and 186 nM in assay [4].

Regarding `COc1ccc(Cn2cccn2)cc1S(=O)(=O)NC(=O)c1cc2ccc(N(C)C)cc2o1` [Example 86, 6-(Dimethylamino)-N-{2-methoxy-5-[(1H-pyrazol-1-yl)methyl]benzene-1-sulfonyl}-1-benzofuran-2-carboxamide], the EC50 in assay [1] is 1.57e-07 M; in assay [5] it was more than 20000 nM. Also, the IC50 in assay [2] was found to be 235 nM; in assay [3], 64.9 nM; in assay [4], 80 nM.

In the case of `Cc1cnc2c(S(=O)(=O)NC(=O)c3cc4ccc(N(C)C)cc4o3)cccc2c1` [Example 87, 6-(Dimethylamino)-N-(3-methylquinoline-8-sulfonyl)-1-benzofuran-2-carboxamide], the EC50 in assay [1] was 4.18e-07 M; in assay [5] it was more than 20000 nM. For the same molecule, the IC50 turned out to be 249 nM in assay [2], 97.3 nM in assay [3] and 104 nM in assay [4].

With `CCOc1ccc([N+](=O)[O-])cc1S(=O)(=O)NC(=O)c1cc2ccc(N(C)C)cc2o1` [Example 88, 6-(Dimethylamino)-N-(2-ethoxy-5-nitrobenzene-1-sulfonyl)-1-benzofuran-2-carboxamide], the EC50 in assay [1] turned out to be 3.2e-07 M; in assay [5] it was 4650 nM. Further, the IC50 in assay [2] is 256 nM; in assay [3] it was 105 nM; in assay [4] it was 205 nM.

As to `CC(C)Oc1cccc(Cl)c1S(=O)(=O)NC(=O)c1cc2ccc(N(C)C)cc2o1` [Example 89, N-{2-chloro-6-[(propan-2-yl)oxy]benzene-1-sulfonyl}-6-(dimethylamino)-1-benzofuran-2-carboxamide], the values for the EC50 in assay [1] and in assay [5] were 4.45e-07 M and more than 20000 nM, respectively. Besides, the values for the IC50 in assay [2], in assay [3] and in assay [4] were 279 nM, 131 nM and 172 nM, respectively.

Take `CCCCCOc1ccccc1S(=O)(=O)NC(=O)c1cc2ccc(N(C)C)cc2o1` [Example 90, 6-(Dimethylamino)-N-[2-(pentyloxy)benzene-1-sulfonyl]-1-benzofuran-2-carboxamide]: the results for the EC50 in assay [1] and in assay [5] were 8.08e-07 M and more than 20000 nM, respectively. Moreover, the IC50 amounted to 312 nM in assay [2], 194 nM in assay [3] and 357 nM in assay [4].

`Cc1ccnc2c(S(=O)(=O)NC(=O)c3cc4ccc(N(C)C)cc4o3)cccc12` [Example 91, 6-(Dimethylamino)-N-(4-methylquinoline-8-sulfonyl)-1-benzofuran-2-carboxamide]: the results for the EC50 in assay [1] and in assay [5] were 7.79e-07 M and more than 20000 nM, respectively. Further, the IC50 in assay [2] was 365 nM; in assay [3], 74.2 nM; in assay [4], 92.2 nM.

In the case of `CC(C)Cc1ccc2cccc(S(=O)(=O)NC(=O)c3cc4ccc(N(C)C)cc4o3)c2n1` [Example 93, 6-(Dimethylamino)-N-[2-(2-methylpropyl)quinoline-8-sulfonyl]-1-benzofuran-2-carboxamide], the EC50 is 8.56e-07 M in assay [1] and more than 20000 nM in assay [5]. Besides, the results for the IC50 in assay [2], in assay [3] and in assay [4] were 457 nM, 100 nM and 173 nM, respectively.

With `CCOc1cccnc1S(=O)(=O)NC(=O)c1cc2ccc(N(C)C)cc2o1` [Example 101, 6-(Dimethylamino)-N-(3-ethoxypyridine-2-sulfonyl)-1-benzofuran-2-carboxamide], the EC50 was 1.4e-06 M in assay [1] and more than 20000 nM in assay [5]. Also, the results for the IC50 in assay [2], in assay [3] and in assay [4] were 1440 nM, 502 nM and 610 nM, respectively.

As to `CN(C)c1cc(F)c2cc(C(=O)NS(=O)(=O)c3ccccc3OC3CC3)oc2c1` [Example 110, N-[2-(Cyclopropyloxy)benzene-1-sulfonyl]-6-(dimethylamino)-4-fluoro-1-benzofuran-2-carboxamide], the results for the EC50 in assay [1] and in assay [5] were 7.12e-08 M and more than 20000 nM, respectively. Besides, the IC50 in assay [2] came to 12.4 nM; in assay [3] it was 7.48 nM; in assay [4], 3.82 nM.

For `CCCOc1ccccc1S(=O)(=O)NC(=O)c1cc2c(F)cc(N(C)C)cc2o1` [Example 111, 6-(Dimethylamino)-4-fluoro-N-(2-propoxybenzene-1-sulfonyl)-1-benzofuran-2-carboxamide], the EC50 in assay [1] is 4.89e-08 M; in assay [5] it was more than 20000 nM. In addition, the IC50 in assay [2] is 15.4 nM; in assay [3], 8.93 nM; in assay [4], 19 nM.

Consider `COc1ccccc1S(=O)(=O)NC(=O)c1cc2c(F)cc(N(C)C)cc2o1` [Example 112, 6-(Dimethylamino)-4-fluoro-N-(2-methoxybenzene-1-sulfonyl)-1-benzofuran-2-carboxamide], for which the EC50 was 4.78e-08 M in assay [1] and more than 20000 nM in assay [5]. In addition, the IC50 was 45.2 nM in assay [2], 17.7 nM in assay [3] and 18.1 nM in assay [4].

Regarding `CCOc1ccc(Br)cc1S(=O)(=O)NC(=O)c1cc2c(F)cc(N(C)C)cc2o1` [Example 113, N-(5-Bromo-2-ethoxybenzene-1-sulfonyl)-6-(dimethylamino)-4-fluoro-1-benzofuran-2-carboxamide], the EC50 was 1.02e-07 M in assay [1] and more than 20000 nM in assay [5]. Moreover, the IC50 is 70.3 nM in assay [2], 7.25 nM in assay [3] and 7.24 nM in assay [4].

For `COc1ccccc1S(=O)(=O)NC(=O)c1cc2ccc(N(C)C)cc2o1` [Example 114, 6-(Dimethylamino)-N-(2-methoxybenzene-1-sulfonyl)-1-benzofuran-2-carboxamide], the EC50 in assay [1] is 1.07e-07 M; in assay [5] it was more than 20000 nM. Besides, the IC50 in assay [2] came out at 58 nM; in assay [3], 114 nM; in assay [4], 150 nM.

With `CCCOc1ccc(C)cc1S(=O)(=O)NC(=O)c1cc2ccc(N(C)C)cc2o1` [Example 115, 6-(Dimethylamino)-N-(5-methyl-2-propoxybenzene-1-sulfonyl)-1-benzofuran-2-carboxamide], the EC50 in assay [1] is 7.02e-08 M; in assay [5], more than 20000 nM. The IC50 in assay [2] stood at 64.2 nM; in assay [3] it was 64.6 nM; in assay [4] it was 87.2 nM.
